Assay results: ChEMBL document CHEMBL1201862, “PubChem BioAssay data set” (2004)
Calls of active or inactive are those of the source.

Key:
[1] = biological target: T1, Mannose-6-phosphate isomerase (Homo sapiens, UniProt P34949); assay: MPI inhibition at elevated mannose 6-phosphate – biochemical, fluorescence intensity, high mannose 6-phosphate, primary screen (AID 1220)
T1 sequence (P34949 whole entry): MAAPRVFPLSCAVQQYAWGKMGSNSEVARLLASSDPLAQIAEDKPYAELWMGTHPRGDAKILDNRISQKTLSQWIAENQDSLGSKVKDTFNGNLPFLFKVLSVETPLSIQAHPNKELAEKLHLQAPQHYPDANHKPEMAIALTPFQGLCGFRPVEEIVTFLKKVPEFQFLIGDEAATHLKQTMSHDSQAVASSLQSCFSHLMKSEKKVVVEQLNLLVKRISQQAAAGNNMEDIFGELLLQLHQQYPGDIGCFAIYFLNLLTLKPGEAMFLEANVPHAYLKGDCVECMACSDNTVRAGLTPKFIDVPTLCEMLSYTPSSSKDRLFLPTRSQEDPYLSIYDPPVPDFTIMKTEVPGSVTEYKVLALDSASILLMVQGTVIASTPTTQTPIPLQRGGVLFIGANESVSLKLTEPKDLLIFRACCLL

[2] = HIV-1 Vif–A3G interaction blockers – biochemical, TR-FRET, GST-Vif 1-94, biotin-A3G peptide, dose response retest, primary screen (AID 1117319); type: functional;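 note: TR-FRET signal of purified GST-Vif binding a biotinylated A3G peptide; inhibitors lower the FRET signal by blocking Vif and A3G binding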
[3] = viability of uninfected HEp-2 cells – cell-based, HTS, cytotoxicity control for RSV inhibitor project, dose response (AID 2410); type: functional; details: human respiratory syncytial virus
[4] = test system: Streptococcus sp. 'group A'; assay: Streptococcus pyogenes SK(-)GAS viability under kanamycin – luminescence, BacTiterGlo, confirmation, counter-screen for streptokinase expression inhibitor project, dose response (AID 1900); type: functional, organism-based
Streptokinase A = biological target: T2, Streptokinase A (Streptococcus pyogenes serotype M1, UniProt P10520); assay: viability-normalized secreted streptokinase activity reduction – plasminogen activation absorbance, OD405, dose response (AID 1914); type: functional, Streptococcus pyogenes M1 GAS;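 note: secreted streptokinase activity via plasminogen activation per viability signal from cell pellet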
T2 sequence (P10520 whole entry): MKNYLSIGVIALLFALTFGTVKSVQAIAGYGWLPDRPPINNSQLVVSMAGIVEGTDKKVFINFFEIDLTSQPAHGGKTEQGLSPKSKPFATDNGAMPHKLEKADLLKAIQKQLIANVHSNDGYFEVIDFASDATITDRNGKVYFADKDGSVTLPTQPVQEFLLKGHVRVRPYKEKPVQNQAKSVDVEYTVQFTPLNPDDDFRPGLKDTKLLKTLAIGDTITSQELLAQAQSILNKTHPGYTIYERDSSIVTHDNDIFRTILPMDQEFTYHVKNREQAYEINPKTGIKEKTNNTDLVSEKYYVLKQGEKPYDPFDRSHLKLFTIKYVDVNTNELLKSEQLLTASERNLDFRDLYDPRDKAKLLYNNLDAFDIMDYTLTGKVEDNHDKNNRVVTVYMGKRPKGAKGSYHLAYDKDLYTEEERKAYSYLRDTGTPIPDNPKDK

Streptococcus = assay: GAS UMAA2166 growth inhibition – luminescence, BacTiterGlo, counter-screen for streptokinase expression inhibitor project, dose response (AID 1915); type: functional, organism-based;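 note: potency for reduction of bacterial viability or growth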
[5] = biological target: Glyceraldehyde-3-phosphate dehydrogenase (Homo sapiens, UniProt P04406)
Chain of Glyceraldehyde-3-phosphate dehydrogenase (P04406 whole entry): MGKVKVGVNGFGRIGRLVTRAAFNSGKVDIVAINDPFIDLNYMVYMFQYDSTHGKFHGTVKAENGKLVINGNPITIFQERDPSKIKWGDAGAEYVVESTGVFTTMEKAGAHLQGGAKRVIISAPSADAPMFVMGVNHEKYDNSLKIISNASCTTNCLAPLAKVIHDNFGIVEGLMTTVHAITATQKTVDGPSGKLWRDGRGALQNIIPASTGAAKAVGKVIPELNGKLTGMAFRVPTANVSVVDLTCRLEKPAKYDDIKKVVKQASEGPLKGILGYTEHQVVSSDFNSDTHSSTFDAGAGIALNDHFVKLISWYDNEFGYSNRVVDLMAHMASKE

Bcl-2-related protein A1 [6] = biological target: T3, Bcl-2-related protein A1 (Mus musculus, UniProt Q07440); assay: small-molecule antagonists of Bfl-1/BH3 interaction – biochemical, TR-FRET, mouse Bfl-1, confirmation (AID 621);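 note: TR-FRET binding of GST-Bfl-1 to FITC-labelled Bid peptide via terbium antibody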
T3 sequence (Q07440 whole entry): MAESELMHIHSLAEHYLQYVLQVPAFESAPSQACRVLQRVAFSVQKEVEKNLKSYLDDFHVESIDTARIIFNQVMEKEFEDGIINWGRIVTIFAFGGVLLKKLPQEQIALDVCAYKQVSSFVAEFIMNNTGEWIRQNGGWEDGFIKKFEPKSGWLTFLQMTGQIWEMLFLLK

Bcl-2-related protein A1 [7] = biological target: T3, Bcl-2-related protein A1; assay: Bfl-1 binding inhibitors, SAR follow-up, biochemical, fluorescence polarization (AID 1070)
[8] = viability loss in THP-1 monocytes – THP-1 cells, cytotoxicity control for Vif-APOBEC3G degradation inhibitor project, dose response (AID 1117359); type: functional; details: THP-1
[9] = blockers of HIV-1 envelope-mediated cell-cell fusion – cherry-pick, dose response (AID 652057); type: functional, cell-based
[10] = blockers of HIV-1 ZM109 envelope-driven cell-cell fusion – HeLa effector, CEM target cells, luciferase, cherry-pick, dose response (AID 652058); type: functional, cell-based;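 note: luciferase signal from HIV-1 Env mediated cell-cell fusion of effector and target cells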
[11] = off-target signal loss in HeLa-CEM21 co-culture – HeLa F-luc CTL cells, cherry-picked, counter-screen for HIV-1 Env fusion inhibitor project, dose response (AID 652040); type: functional, cell-based;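 note: potency for signal decrease marking cytotoxic or nonspecific inhibition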
[12] = HIV-1 AD8 envelope cell-cell fusion blockers – cherry-pick, dose response (AID 652062); type: functional, cell-based;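 note: luciferase signal from cell-cell fusion driven by HIV-1 clade B AD8 Env; potency is for inhibitors of fusion seen as a drop in luminescence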

In the case of `Cc1cccc(Oc2c([N+](=O)[O-])c(=O)n(C)c3ccccc23)c1`, the IC50 [1] is reported as > 50 µM (not active).
For `CC(C)n1/c(=N/C(=O)c2ccco2)c(C#N)cc2c(=O)n3ccccc3cc21`, the IC50 [2] was > 100 µM (active).
In the case of `Cc1ccc2c(C)c(C(=O)Nc3ccc(S(=O)(=O)Nc4onc(C)c4C)cc3)oc2c1`, the CC50 [3] is reported as 24.4 µM (active), the EC50 [4] is reported as 23.8 µM (active) and the EC50 (Streptokinase A) is reported as > 150 µM (not active). The EC50 (Streptococcus) was > 150 µM (not active) and the IC50 (cells) was 24.7 µM (active).
In the case of `Cc1cccc(N2C(=O)C(Cl)=C(N3CCN(CCO)CC3)C2=O)c1`, the IC50 [5] is reported as > 100 µM (not active), the IC50 (Bcl-2-related protein A1 [6]) is reported as 11.5 µM (active) and the IC50 (Bcl-2-related protein A1 [7]) is reported as 12.3 µM (active).
In the case of `CS(=O)(=O)c1nc(-c2ccccc2)cc(-c2ccccc2)n1`, the IC50 [5] is reported as > 100 µM (not active), the IC50 (Bcl-2-related protein A1 [6]) is reported as > 100 µM (not active) and the IC50 (Bcl-2-related protein A1 [7]) is reported as > 100 µM (not active).
For `COc1ccc(C(=O)Cn2c(=N)n(C)c3ccccc32)cc1`, the CC50 [8] was > 40 µM (active) and the IC50 [2] was > 100 µM (active).
With `COC(=O)C1=C(c2ccc(F)cc2F)C[C@@H]2CC[C@H]1N2C(=O)NCCOc1ccccc1Cl` the CC50 [3] was 34.5 µM (active) and the IC50 (cells) was 13.9 µM (active).
In the case of `CN(C)CCn1c(=O)n(-c2cccc(Cl)c2)c(=O)c2c3c(sc21)CCCCC3`, the AC50 [9] is reported as 786 nM (active), the AC50 [10] is reported as 997 nM (active) and the AC50 [11] is reported as 1.96 µM (active). For the same compound, the AC50 [12] was 4.37 µM (active).
